Data on 1 compound can be found in EP0585371B1, “AROMATIC OLIGOMERIC COMPOUNDS USEFUL AS MIMICS OF BIOACTIVE MACROMOLECULES” (RHONE-POULENC RORER INTERNATIONAL (HOLDINGS) INC., priority 1991, dated 1992).

In assay [1] the test system is Vascular smooth muscle cells (VSMC). The assay is described as follows: Smooth Muscle Cell DNA Synthesis Assay (3H-thymidine incorporation in response to PDGF). As to conditions: inhibition of incorporation of 3H-thymidine in response to PDGF (9 ng/ml). Type of assay: cell-based, swine. As for the experimental part:
Vascular smooth muscle cells (VSMC) are isolated from swine coronaries obtained from swine hearts (Hatfield Meat Packing, Hatfield, PA) by enzyme dissociation as described by Gunther, et al., in J. Cell. Biol. 92, 289 (1982). Hyaluronidase (0.5 mg/ml) is added to facilitate dispersal. Cells are maintained in Earle's modified minimal essential medium (EMEM) with D-valine substituted for L-valine, supplemented with Hepes (10 mM), fetal bovine serum (FBS) (10%), penicillin (100 U/ml) and streptomycin ( 100 µg/ml).
The VSMC (passage 2) are plated at a density of 3 x 10^4 /cm2 (1x10^4 cells/well of 96 well tray) and after 48 hours of normal growth are arrested by replacement of above media with serum-free media for 48 hours consisting of: EMEM: Hams F12 (1:1), insulin, 5 µg/ml; transferrin, 35 µg/ml; selenite, 5 ng/ml; antibiotics and buffer (as above). The oligomer of the present invention to be tested (.01-10 µM) is added 2 hours prior to addition of porcine platelet derived growth factor (Research and Diagonostics, Minneapolis, MN), or FBS,in fresh serum-free media. Twenty-four hours later the oligomers are again added preceding addition of growth factors by 2 hours. […]
The VSMC are pulsed (5 hours) with ^3H-thymidine (Amersham, Arlington Heights, IL) (1 µCi/well of a 96 well plate; 42 Ci/mmole) added 15-18 hours after the last dose of growth factor. DNA synthesis is determined in NaOH extraction of ethanol/ether fixed cells as reported by Nemecek, et al., PNAS 83, 674 (1986). The cells are washed with phosphate bufferred saline (200 µl/well of 96-well tray. The cells are incubated with trichloroacetic acid (TCA) (10%, 200 ul) for 5 minutes to remove cytoplasmic label. After a rapid wash with cold 10% TCA, cells are fixed with ethanol/ether (2:1, 200 µl/well 5 min) and dried. The labeled DNA is extracted with 0.5 N NaOH (200 µl/well 30 min incubation, room temperature). The extracted DNA is neutralized (0.5 N HCI) and counted by liquid scintillation.
Statistical evaluation is as reported by Bilder, et al., Am. […] IC50 values are calculated by linear regression (RPL of RS1) from % inhibition of a minimum of 3 log fold dilutions of oligomers in the presence of PDGF (9 ng/ml) which give 70-80% of a maximal PDGF response. […] Percent inhibition is calculated by comparing the effect of PDGF alone (vehicle treated cultures + PDGF minus vehicle treated cultures without PDGF) to the effect of oligomers (oligomer + PDGF minus oligomer alone) and divided by the effect of PDGF times 100. i.e., = % inhibition = ((ΔVehicle + PDGF) - (Δoligomer + PDGF)/(Δvehicle + PDGF)) x 100.
For orientation: Uptake of a labelled nucleoside into DNA is a usual measure of proliferation.

Assay [2] has as its target T1, ESb mouse lymphoma heparanase (Mus musculus, UniProt Q6YGZ1).
T1 construct: endogenous in cells; host or cells: ESb mouse lymphoma cells
T1 sequence (Q6YGZ1 28-535): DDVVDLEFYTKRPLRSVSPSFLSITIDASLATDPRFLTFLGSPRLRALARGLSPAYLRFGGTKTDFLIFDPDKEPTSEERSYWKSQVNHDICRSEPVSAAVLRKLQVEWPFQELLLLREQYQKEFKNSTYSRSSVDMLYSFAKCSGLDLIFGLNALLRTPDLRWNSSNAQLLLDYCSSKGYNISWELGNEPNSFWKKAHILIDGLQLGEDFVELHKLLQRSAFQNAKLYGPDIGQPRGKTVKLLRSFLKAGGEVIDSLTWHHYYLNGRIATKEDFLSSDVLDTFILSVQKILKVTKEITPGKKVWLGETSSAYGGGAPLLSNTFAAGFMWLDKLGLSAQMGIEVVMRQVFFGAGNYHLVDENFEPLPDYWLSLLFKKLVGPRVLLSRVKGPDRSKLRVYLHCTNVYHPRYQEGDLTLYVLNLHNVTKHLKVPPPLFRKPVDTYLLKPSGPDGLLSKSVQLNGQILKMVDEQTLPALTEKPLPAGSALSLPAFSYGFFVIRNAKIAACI
Nature of the assay: Inhibition of heparanase activity (degradation of labeled ECM heparan sulfate). It counts as biochemical. As to conditions: 24 hours incubation with labeled ECM. As for the experimental part:
Heparanase is an endoglucuronidase capable of degrading […] (HS) at specific intrachain sites.
The ability of compounds of the present invention to inhibit lymphomacell derived heparanase is tested in the assay system described by Vlodavsky et al., Cancer Research 43, 2704-2711 (1983). […] labeled ECM is incubated for 24 hours with ESb mouse lymphoma heparanase in the presence of various concentrations of the oligomers tested. Degradation of the HS is followed by gel filtration of the supematants. Heparanase activity is expressed as the total amount of labeled low-molecular-weight fragments released from the EMC substrate.

Assay [3] relates to normal pooled plasma. Nature of the assay: Anticoagulation activity, Activated Partial Thromboplastin Time (APTT) test. As to conditions: concentration required to double clotting time. As for the experimental part: The following test measures anticoagulant activity of the oligomers of the present invention and utilizes the Activated Partial Thromboplastin Time (APTT) test, with the following procedures.
To an assay cuvette is added 100 µl of normal pooled plasma (George King Biomedical Inc., Kansas) and […] of a solution containing the test compound in aqueous 50 mM Tris hydrochloride at pH 7.5 (0.2 mg of sample in one ml buffer). The sample is placed in a MLA coagulation timer which automatically maintains the sample at 37°C for 2.5 minutes, 100 µl of actin activated cephaloplastin reagent is injected, kept 5 minutes, 100 µl of 35 mM CaCI is injected, and clot formation is determined photometrically and the clotting time recorded. Each example is examined at a variety of concentrations, generally from about .025 mg/ml to about 1 mg/ml, and the clotting times are graphed as a function of concentration. From the graphic results, the concentration required to double clotting time (ICDCT) is calculated by linear interpolation.

Assay [4] relates to human fixed thrombin activated platelets. Nature of the assay: Platelet aggregation inhibition (fibrinogen-induced). It counts as cell-based. As to conditions: human fibrinogen added. As for the experimental part: The method for measuring platelet aggregation inhibition is essentially that of Ruggeri, et al., Proc. Natl. Acad. Sci. USA, 83, 5708-5712 (1986), using formalin-fixed platelets as prepared by Plow, et al., Proc. Natl. Acad. Sci. USA, 79, 3711-3715 (1982). A given amount of the compound of the present invention or other compound to be tested (10 to 100 µl of a 1 mg/ml solution) is incubated at 37°C with 400 µl of human fixed thrombin activated platelets for 2 minutes. 12.5 µl of human fibrinogen solution is added and aggregation is monitored using a platelet aggregation profiler (Model PAP-4). Controls consist of fibrinogen added to incubated platelets and the resulting aggregation is considered as 100%. Percent inhibition in the presence of a given concentration of test compound versus concentration of the compound is plotted and the concentration required to give 50% inhibition (IC50) is determined.

As a reminder, the IC50 is the concentration that inhibits the measured activity by half.

`Cc1cc(O)c(Cc2cc(O)c(Cc3cc(O)c(Cc4cc(O)c(Cc5cc(O)c(Cc6cc(O)c(Cc7cc(O)c(Cc8cc(O)c(Cc9cc(O)c(Cc%10cc(O)c(Cc%11cc(O)c(Cc%12cc(O)c(Cc%13cc(O)c(Cc%14cc(O)c(Cc%15cc(O)c(Cc%16cc(O)ccc%16CCC(=O)O)cc%15CCC(=O)O)cc%14CCC(=O)O)cc%13CCC(=O)O)cc%12CCC(=O)O)cc%11CCC(=O)O)cc%10CCC(=O)O)cc9CCC(=O)O)cc8CCC(=O)O)cc7CCC(=O)O)cc6CCC(=O)O)cc5CCC(=O)O)cc4CCC(=O)O)cc3CCC(=O)O)cc2CCC(=O)O)cc1CCC(=O)O` [Ex 2, Step 26]: the half-inhibitory concentration (IC50) in assay [1] amounted to 40 nM. The “% Inhibition of Heparanase Activity (5µg/ml)” value in assay [2] is reported as 68%. The “APTT ICDCT” value in assay [3] amounted to 35 µg/mL. In assay [4], the “Platelet Aggregation IC50” value was found to be 250 µg/mL.
